Experimental data from US8168647B2, “Vinblastine derivatives, their preparation, use and pharmaceutical compositions comprising the said derivatives” (Shanghai Institute of Materia Medica Chinese Academy of …, priority 2007, dated 2012).
Where a name gives a salt, the structure may show the parent alone. Read-outs that look alike come from different tables or passages of the source.

What was measured:
[1] = tested on: human non-small cell lung cancer cell line A-549; assay: In vitro cytotoxicity assay, Sulforhodamine B (SRB), A-549; format: cell-based; details: for IC50: Homo sapiens, A549, 72 h, read-out: A549 (IC50, nM)
sarcoma 180 = assay: In vivo antitumor assay on Sarcoma 180 (S180) in mice; details: for inhibition in vivo at 10 mg/kg: read-out: Inhibition rate %, 10 mg/kg, iv, d 1, 4
[2] = tested on: human cervical carcinoma cell line Hela; assay: In vitro cytotoxicity assay, Sulforhodamine B (SRB), Hela; format: cell-based; details: Homo sapiens, HeLa, 72 h, read-out: Hela (IC50, nM)

Row | SMILES | IC50 [1] [nM] | IC50 [2] [nM] | further results
1 | CCC1=C[C@@H]2CN(CCc3c([nH]c4ccccc34)[C@@](C(=O)OC)(c3cc4c(cc3OC)N(C)[C@H]3C(O)(CNC(=O)C5CC5)[C@H](OC(C)=O)[C@]5(CC)C=CCN6CC[C@]43[C@@H]65)C2)C1 (stereo partly drawn) [BM33] | 26.4 | 17 | cell-based efficacy, inhibition of tumor cell proliferation (in words) [1]: excellent cell-based efficacy; Average weight (g) At sacrifice (sarcoma 180; 10 mg/kg, iv, d 1, 4): 22.2 g; Tumor Weight (g) X ± SD (sarcoma 180; 10 mg/kg, iv, d 1, 4): 0.30 ± 0.05 g; Average weight (g) At sacrifice (sarcoma 180; 20 mg/kg, iv d 1): 23.9 g; Tumor Weight (g) X ± SD (sarcoma 180; 20 mg/kg, iv d 1): 0.18 ± 0.02 g; inhibition in vivo at 10 mg/kg (sarcoma 180; Mus musculus, Sarcoma-180, iv): 81.3%; inhibition in vivo at 20 mg/kg (sarcoma 180; Mus musculus, Sarcoma-180, iv, read-out: Inhibition rate %, 20 mg/kg, iv d 1): 88.8%
2 | CC[C@]12C=CCN3CC[C@@]4(c5cc([C@@]6(C(=O)OC)C[C@@H]7C[C@@H](C(C)(F)F)CN(CCc8c6[nH]c6ccccc86)C7)c(OC)cc5N(C)[C@H]4C(O)(COC(=O)C4CC4)[C@@H]1OC(C)=O)[C@@H]32 (stereo partly drawn) [BM76] | > 1000 | > 1000 | Average weight (g) At sacrifice (sarcoma 180; 20 mg/kg, iv, d 1, 4): 31.4 g; Tumor Weight (g) X ± SD (sarcoma 180; 20 mg/kg, iv, d 1, 4): 1.20 ± 0.09 g; Average weight (g) At sacrifice (sarcoma 180; 40 mg/kg, iv, d 1, 4): 31.8 g; Tumor Weight (g) X ± SD (sarcoma 180; 40 mg/kg, iv, d 1, 4): 1.25 ± 0.45 g; inhibition in vivo at 20 mg/kg (sarcoma 180; Mus musculus, Sarcoma-180, iv, read-out: Inhibition rate %, 20 mg/kg, iv, d 1, 4): 25%; inhibition in vivo at 40 mg/kg (sarcoma 180; Mus musculus, Sarcoma-180, iv, read-out: Inhibition rate %, 40 mg/kg, iv, d 1, 4): 21.9%
3 | CCC1=C[C@@H]2CN(CCc3c([nH]c4ccccc34)[C@@](C(=O)OC)(c3cc4c(cc3OC)N(C)[C@H]3C(O)(CNC(=O)OCC(C)C)[C@H](OC(C)=O)[C@]5(CC)C=CCN6CC[C@]43[C@@H]65)C2)C1 (stereo partly drawn) [BM53] | 13.7 | 7.1 | cell-based efficacy, inhibition of tumor cell proliferation (in words) [1]: excellent cell-based efficacy; Average weight (g) At sacrifice (sarcoma 180; 10 mg/kg, iv, d 1, 4): 25.4 g; Tumor Weight (g) X ± SD (sarcoma 180; 10 mg/kg, iv, d 1, 4): 0.24 ± 0.09 g; inhibition in vivo at 10 mg/kg (sarcoma 180; Mus musculus, Sarcoma-180, iv): 85%
4 | CCC1=C[C@@H]2CN(CCc3c([nH]c4ccccc34)[C@@](C(=O)OC)(c3cc4c(cc3OC)N(C)[C@H]3C(O)(CNC(=O)c5ccc(OC)cc5)[C@H](OC(C)=O)[C@]5(CC)C=CCN6CC[C@]43C65)C2)C1 (stereo partly drawn) [BM45] | 578 | 135 | –
5 | CCC1=C[C@@H]2CN(CCc3c([nH]c4ccccc34)[C@@](C(=O)OC)(c3cc4c(cc3OC)N(C)[C@H]3[C@@]5(CNC(=O)O5)[C@H](OC(C)=O)[C@]5(CC)C=CCN6CC[C@]43[C@@H]65)C2)C1 [BM74] | 710 | 342 | –
6 | CCCCCOC(=O)NCC1(O)[C@H](OC(C)=O)[C@]2(CC)C=CCN3CC[C@@]4(c5cc([C@@]6(C(=O)OC)C[C@@H]7C=C(CC)CN(CCc8c6[nH]c6ccccc86)C7)c(OC)cc5N(C)[C@@H]14)[C@@H]32 (stereo partly drawn) [BM56] | 332 | 78.4 | –
7 | CCC1=C[C@@H]2CN(CCc3c([nH]c4ccccc34)[C@@](C(=O)OC)(c3cc4c(cc3OC)N(C)[C@H]3C(O)(CNC(=O)Oc5ccccc5OC)[C@H](OC(C)=O)[C@]5(CC)C=CCN6CC[C@]43[C@@H]65)C2)C1 (stereo partly drawn) [BM64] | 951 | 227 | –
8 | CC[C@]12C=CCN3CC[C@@]4(c5cc([C@@]6(C(=O)OC)C[C@@H]7C[C@@H](C(C)(F)F)CN(CCc8c6[nH]c6ccccc86)C7)c(OC)cc5N(C)[C@H]4C(O)(CNC(C)=O)[C@@H]1OC(C)=O)[C@@H]32 (stereo partly drawn) [BM77] | > 1000 | > 1000 | –
9 | CC[C@]1(O)C[C@@H]2CN(CCc3c([nH]c4ccccc34)[C@@](C(=O)OC)(c3cc4c(cc3OC)N(C)[C@H]3[C@@](O)(C(=O)OC)[C@H](OC(C)=O)[C@]5(CC)C=CCN6CC[C@]43[C@@H]65)C2)C1 [Vinblastine sulfate, vinblastine sulfate, reference compound] | 3.4 | 2.5 | –
10 | CCC1=C[C@@H]2CN(CCc3c([nH]c4ccccc34)[C@@](C(=O)OC)(c3cc4c(cc3OC)N(C)[C@H]3C(O)(CNC(=O)OCc5ccc(Cl)cc5)[C@H](OC(C)=O)[C@]5(CC)C=CCN6CC[C@]43[C@@H]65)C2)C1 (stereo partly drawn) [BM71] | 510 | 347 | –
11 | CCC1=C[C@@H]2CN(CCc3c([nH]c4ccccc34)[C@@](C(=O)OC)(c3cc4c(cc3OC)N(C)[C@H]3C(O)(COC(=O)Cc5ccccc5)[C@H](OC(C)=O)[C@]5(CC)C=CCN6CC[C@]43[C@@H]65)C2)C1 (stereo partly drawn) [BM15] | > 1000 | 228 | –
12 | CCC(=O)OCC1(O)[C@H](OC(C)=O)[C@]2(CC)C=CCN3CC[C@@]4(c5cc([C@@]6(C(=O)OC)C[C@@H]7C=C(CC)CN(CCc8c6[nH]c6ccccc86)C7)c(OC)cc5N(C)[C@@H]14)[C@@H]32 (stereo partly drawn) [BM10] | 710 | 637 | –
13 | C=CCOCC1(O)[C@H](OC(C)=O)[C@]2(CC)C=CCN3CC[C@@]4(c5cc([C@@]6(C(=O)OC)C[C@@H]7C=C(CC)CN(CCc8c6[nH]c6ccccc86)C7)c(OC)cc5N(C)[C@@H]14)[C@@H]32 (stereo partly drawn) [BM2] | 441 | 113 | –
14 | CCC1=C[C@@H]2CN(CCc3c([nH]c4ccccc34)[C@@](C(=O)OC)(c3cc4c(cc3OC)N(C)[C@H]3C(O)(CNC(=O)Oc5ccc(OC)cc5)[C@H](OC(C)=O)[C@]5(CC)C=CCN6CC[C@]43[C@@H]65)C2)C1 (stereo partly drawn) [BM65] | 344 | 159 | –
15 | CCOCC1(O)[C@H](OC(C)=O)[C@]2(CC)C=CCN3CC[C@@]4(c5cc([C@@]6(C(=O)OC)C[C@@H]7C=C(CC)CN(CCc8c6[nH]c6ccccc86)C7)c(OC)cc5N(C)[C@@H]14)[C@@H]32 (stereo partly drawn) [BM1] | 348 | 154 | –
16 | CCC1=C[C@@H]2CN(CCc3c([nH]c4ccccc34)[C@@](C(=O)OC)(c3cc4c(cc3OC)N(C)[C@H]3C(O)(CNC(=O)OCc5ccc6c(c5)OCO6)[C@H](OC(C)=O)[C@]5(CC)C=CCN6CC[C@]43[C@@H]65)C2)C1 (stereo partly drawn) [BM69] | 230 | 127 | –
17 | CCC1=C[C@@H]2CN(CCc3c([nH]c4ccccc34)[C@@](C(=O)OC)(c3cc4c(cc3OC)N(C)[C@H]3C(O)(CNC(=O)Oc5ccccc5)[C@H](OC(C)=O)[C@]5(CC)C=CCN6CC[C@]43[C@@H]65)C2)C1 (stereo partly drawn) [BM61] | 978 | 683 | –
18 | CCC1=C[C@@H]2CN(CCc3c([nH]c4ccccc34)[C@@](C(=O)OC)(c3cc4c(cc3OC)N(C)[C@H]3C(O)(CNC(=O)OC(C)C)[C@H](OC(C)=O)[C@]5(CC)C=CCN6CC[C@]43[C@@H]65)C2)C1 (stereo partly drawn) [BM50] | 162 | 26.2 | –
19 | CCC1=C[C@@H]2CN(CCc3c([nH]c4ccccc34)[C@@](C(=O)OC)(c3cc4c(cc3OC)N(C)[C@H]3C(O)(CNC(=O)c5ccccc5)[C@H](OC(C)=O)[C@]5(CC)C=CCN6CC[C@]43[C@@H]65)C2)C1 (stereo partly drawn) [BM36] | 87.4 | 16.4 | –
20 | CCC1=C[C@@H]2CN(CCc3c([nH]c4ccccc34)[C@@](C(=O)OC)(c3cc4c(cc3OC)N(C)[C@H]3C(O)(COCc5ccc(OC)cc5)[C@H](OC(C)=O)[C@]5(CC)C=CCN6CC[C@]43C65)C2)C1 (stereo partly drawn) [BM5] | > 1000 | 286 | –
21 | CCC1=C[C@@H]2CN(CCc3c([nH]c4ccccc34)[C@@](C(=O)OC)(c3cc4c(cc3OC)N(C)[C@H]3C(O)(CNC(=O)C(C)C)[C@H](OC(C)=O)[C@]5(CC)C=CCN6CC[C@]43[C@@H]65)C2)C1 (stereo partly drawn) [BM28] | 101 | 75.8 | –
22 | C=C(C)C(=O)NCC1(O)[C@H](OC(C)=O)[C@]2(CC)C=CCN3CC[C@@]4(c5cc([C@@]6(C(=O)OC)C[C@@H]7C=C(CC)CN(CCc8c6[nH]c6ccccc86)C7)c(OC)cc5N(C)[C@@H]14)[C@@H]32 (stereo partly drawn) [BM32] | 17.9 | 12.5 | –
23 | CCC1=C[C@@H]2CN(CCc3c([nH]c4ccccc34)[C@@](C(=O)OC)(c3cc4c(cc3OC)N(C)[C@H]3C(O)(CNC(=O)OC5CCCCC5)[C@H](OC(C)=O)[C@]5(CC)C=CCN6CC[C@]43[C@@H]65)C2)C1 (stereo partly drawn) [BM60] | 226 | 75.9 | –
